Assay results: patent US6974870B2, “Substituted 3-amino-thieno [2,3-b]pyridine-2-carboxylic acid amide compounds and processes for preparing and their uses” (Boehringer Ingelheim Phamaceuticals, Inc., priority 2002, dated 2005)

How the values were obtained:
[1] = biological target: T1, human IKKβ (Homo sapiens, UniProt O14920); test: IKKβ kinase inhibition assay (phosphorylation of IκBα substrate, 33P-ATP); format: biochemical; conditions: flag-tagged human IKKβ 0.9 μg/ml, GST-IκBα (1-54) 53 μg/ml, 250 nM ATP, 1 hour at 25° C.
T1 construct: FLAG (N)
T1 sequence (O14920 1-756): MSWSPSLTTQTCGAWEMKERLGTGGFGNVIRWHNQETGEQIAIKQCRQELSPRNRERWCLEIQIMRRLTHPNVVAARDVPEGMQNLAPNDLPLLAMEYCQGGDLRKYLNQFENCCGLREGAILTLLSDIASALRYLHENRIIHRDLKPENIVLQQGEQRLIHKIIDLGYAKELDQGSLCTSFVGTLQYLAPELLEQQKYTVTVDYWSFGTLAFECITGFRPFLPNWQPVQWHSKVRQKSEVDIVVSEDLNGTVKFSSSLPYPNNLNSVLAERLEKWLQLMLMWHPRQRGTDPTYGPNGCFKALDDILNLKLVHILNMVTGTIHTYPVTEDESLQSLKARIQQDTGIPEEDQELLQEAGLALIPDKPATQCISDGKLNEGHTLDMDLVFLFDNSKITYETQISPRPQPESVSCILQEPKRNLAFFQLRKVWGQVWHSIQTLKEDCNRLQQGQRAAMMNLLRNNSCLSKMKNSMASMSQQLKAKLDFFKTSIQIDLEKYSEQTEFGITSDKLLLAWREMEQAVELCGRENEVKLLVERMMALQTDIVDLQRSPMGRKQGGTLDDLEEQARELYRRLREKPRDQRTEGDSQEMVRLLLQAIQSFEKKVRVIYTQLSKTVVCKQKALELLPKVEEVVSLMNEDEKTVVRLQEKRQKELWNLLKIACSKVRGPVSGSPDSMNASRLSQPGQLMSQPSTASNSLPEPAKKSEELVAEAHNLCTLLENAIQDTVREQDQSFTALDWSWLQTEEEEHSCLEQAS
Experimental: (§1) The inhibition of IKKα and IKKβ by the compounds of the present invention was determined with the following assay that measures the phosphorylation of the IκBα substrate by the respective kinases. The enzymes used in the assay were N-terminally flag-tagged versions of the human IKKβ or IKKα and the substrate was a GST fusion protein with IκBα (amino acids 1-54).
(§2) The reaction mixtures (60 μl) contained 20 mM HEPES pH 7.5, 10 mM MgCl2, 2 mM MnCl2, 100 mM NaCl, 100 μM Na3VO4, 20 mM β-glycerophosphate, 1 mM DTT, 2% DMSO, 250 nM ATP, 0.4 nM [^33P]ATP (specific activity, 3000 Ci/mmol), IκBα substrate, IKK enzyme and test compound. The reaction mixtures contained either 3.6 μg/ml IKKα and 245 μg/ml IκBα or 0.9 μg/ml IKKβ and 53 μg/ml IκBα.
(§3) Reactions were initiated by adding a solution of IκBα substrate and ATP to polypropylene plates containing IKK enzyme that was pre-incubated for 5 minutes with test compound. Then the reaction mixtures were incubated for 1 hour at 25° C., placed on ice and quenched by the addition of 150 μl 10% trichloroacetic acid and 5% disodium pyrophosphate. After mixing, the entire contents of the quenched reaction mixtures were transferred to a pre-wetted Packard UniFilter filtration plate, aspirated and washed 6 times with 250 μl of ddH2O using the Packard Filtermate Harvester. Filtration plates were then air dried, supplemented with 40 μl of Microscint 20 scintillation fluid and the ^33P-labeled reaction products were quantified using the Packard TopCount scintillation counter.
(§4) Compounds were tested in three-fold serial dilutions and inhibitor concentrations to achieve 50% inhibition of enzyme activity (i.e., IC50) were derived from dose-reponse curves using SAS software (SAS Institute, Cary N.C.). A non-linear regression analysis based on the Hill equation was applied to the percent inhibition versus concentration data. In all cases, compound concentrations were verified by HPLC.

[2] = biological target: T2, human IKKα (Homo sapiens, UniProt O15111); test: IKKα kinase inhibition assay (phosphorylation of IκBα substrate, 33P-ATP); format: biochemical; conditions: flag-tagged human IKKα 3.6 μg/ml, GST-IκBα (1-54) 245 μg/ml, 250 nM ATP, 1 hour at 25° C.
T2 construct: FLAG (N)
T2 sequence (O15111 1-745): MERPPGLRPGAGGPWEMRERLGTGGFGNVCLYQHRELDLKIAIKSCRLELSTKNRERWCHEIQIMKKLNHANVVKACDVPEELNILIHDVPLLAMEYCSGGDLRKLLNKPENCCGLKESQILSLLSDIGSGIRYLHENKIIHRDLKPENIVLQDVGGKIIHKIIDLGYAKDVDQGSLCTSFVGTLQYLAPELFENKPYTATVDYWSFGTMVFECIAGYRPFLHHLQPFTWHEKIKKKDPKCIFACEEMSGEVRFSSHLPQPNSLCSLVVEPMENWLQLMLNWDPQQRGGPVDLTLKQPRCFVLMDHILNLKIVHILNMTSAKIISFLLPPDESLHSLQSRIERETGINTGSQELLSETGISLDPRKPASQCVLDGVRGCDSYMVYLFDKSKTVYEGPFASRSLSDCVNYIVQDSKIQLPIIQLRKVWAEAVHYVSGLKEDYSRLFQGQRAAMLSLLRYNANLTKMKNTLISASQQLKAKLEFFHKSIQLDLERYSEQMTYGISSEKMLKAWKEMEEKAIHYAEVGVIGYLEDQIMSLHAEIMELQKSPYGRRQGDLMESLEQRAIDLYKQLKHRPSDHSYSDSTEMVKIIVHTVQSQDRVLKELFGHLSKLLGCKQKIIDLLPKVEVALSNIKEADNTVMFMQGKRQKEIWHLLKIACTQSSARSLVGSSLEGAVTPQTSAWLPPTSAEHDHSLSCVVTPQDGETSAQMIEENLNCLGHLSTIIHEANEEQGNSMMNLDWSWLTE
Experimental: as §1, §2, §3, §4

| SMILES | IC50 [1] [µM] | IC50 [2] [µM] |
| --- | --- | --- |
| CCCc1cc(N2CCC(NC3CC3)CC2)nc2sc(C(N)=O)c(N)c12 [3-Amino-6-(4-cyclopropylamino-piperidin-1-yl)-4-propyl-thieno[2,3-b] pyridine-2-carboxylic acid amide] | < 1 | ≤ 10 |
| Cc1cc(N2CCC(N)CC2)nc2sc(C(N)=O)c(N)c12 [3-Amino-6-(4-amino-piperidin-1-yl)-4-methyl-thieno[2,3-b] pyridine-2-carboxylic acid amide] | < 1 | ≤ 10 |
| CC(C)c1cc(N2CCC(N)CC2)nc2sc(C(N)=O)c(N)c12 [3-Amino-6-(4-amino-piperidin-1-yl)-4-isopropyl-thieno[2,3-b] pyridine-2-carboxylic acid amide] | < 1 | ≤ 10 |
| NC(=O)c1sc2nc(N3CCC(N)CC3)cc(C(=O)Nc3cccnc3)c2c1N [3-Amino-6-(4-amino-piperidin-1-yl)-thieno[2,3-b]pyridine-2,4-dicarboxylic acid 2-amide 4-pyridin-3-ylamide] | < 1 | ≤ 10 |
| CNC(=O)c1cc(N2CCC(N)CC2)nc2sc(C(N)=O)c(N)c12 [3-Amino-6-(4-amino-piperidin-1-yl)-thieno[2,3-b]pyridine-2,4-dicarboxylic acid 2-amide 4-methylamide] | < 1 | ≤ 10 |
| NC(=O)c1sc2nc(N3CCC(NCC(O)c4ccc(-c5nccs5)cc4)CC3)cc(C(F)(F)F)c2c1N (stereo not drawn) [3-Amino-6-{4-[2-hydroxy-2-(4-thiazol-2-yl-phenyl)-ethylamino]-piperidin-1-yl}-4-trifluoromethyl-thieno[2,3-b]pyridine-2-carboxylic acid amide] | < 1 | ≤ 10 |
| CNC1CCN(c2cc(SC)c3c(N)c(C(N)=O)sc3n2)CC1 [3-Amino-6-(4-methylamino-piperidin-1-yl)-4-methylsulfanyl-thieno[2,3-b]pyridine-2-carboxylic acid amide] | < 1 | ≤ 10 |
| CCCc1cc(N2CCC(NCC(O)c3ccc(-c4nccs4)cc3)CC2)nc2sc(C(N)=O)c(N)c12 (stereo not drawn) [3-Amino-6-{4-[2-hydroxy-2-(4-thiazol-2-yl-phenyl)-ethylamino]-piperidin-1-yl}-4-propyl-thieno[2,3-b]pyridine-2-carboxylic acid amide] | < 1 | ≤ 10 |
| CCc1cc(N2CCC(N)CC2)nc2sc(C(N)=O)c(N)c12 [3-Amino-6-(4-amino-piperidin-1-yl)-4-ethyl-thieno[2,3-b] pyridine-2-carboxylic acid amide] | < 1 | ≤ 10 |
| CNC1CCN(c2cc(C(F)(F)F)c3c(N)c(C(N)=O)sc3n2)CC1 [3-Amino-6-(4-methylamino-piperidin-1-yl)-4-trifluoromethyl-thieno[2,3-b]pyridine-2-carboxylic acid amide] | < 1 | ≤ 10 |
| NC(=O)c1sc2nc(N3CCC(NCC(O)c4ccc(-c5cnccn5)cc4)CC3)cc(C(F)(F)F)c2c1N (stereo not drawn) [3-Amino-6-{4-[2-hydroxy-2-(4-pyrazin-2-yl-phenyl)-ethylamino]-piperidin-1-yl}-4-trifluoromethyl-thieno[2,3-b]pyridine-2-carboxylic acid amide] | < 1 | ≤ 10 |
| CCCc1cc(N2CCC(NCC(O)c3ccc(-c4cccnc4)cc3)CC2)nc2sc(C(N)=O)c(N)c12 (stereo not drawn) [3-Amino-6-{4-[2-hydroxy-2-(4-pyridin-3-yl-phenyl)-ethylamino]-piperidin-1-yl}-4-propyl-thieno[2,3-b] pyridine-2-carboxylic acid amide] | < 1 | ≤ 10 |
| CCCc1cc(N2CCC(NCC(O)c3ccc(-n4ccnc4)cc3)CC2)nc2sc(C(N)=O)c(N)c12 (stereo not drawn) [3-Amino-6-{4-[2-hydroxy-2-(4-imidazol-1-yl-phenyl)-ethylamino]-piperidin-1-yl}-4-propyl-thieno[2,3-b] pyridine-2-carboxylic acid amide] | < 1 | ≤ 10 |
| CCCc1cc(N2CCNCC2)nc2sc(C(N)=O)c(N)c12 [3-amino-6-piperazin-1-yl-4-propyl-thieno[2,3-b]pyridine-2-carboxylic acid amide] | – | ≤ 10 |
| Cc1cc(/C=C/c2ccccc2)c2c(N)c(C(N)=O)sc2n1 [3-Amino-6-methyl-4-((E)-styryl)-thieno[2,3-b]pyridine-2-carboxylic acid amide] | – | ≤ 10 |
| Cc1cc(-c2ccc([N+](=O)[O-])cc2)c2c(N)c(C(N)=O)sc2n1 [3-Amino-6-methyl-4-(4-nitro-phenyl)-thieno[2,3-b]pyridine-2-carboxylic acid amide] | – | ≤ 10 |
| Cc1cc(-c2ccc(S(C)(=O)=O)cc2)c2c(N)c(C(N)=O)sc2n1 [3-Amino-4-(4-methanesulfonyl-phenyl)-6-methyl-thieno[2,3-b]pyridine-2-carboxylic acid amide] | – | ≤ 10 |
| NC(=O)c1sc2nc(N3CCC(NCC(O)c4ccc(C(=O)NCc5ccccc5)cc4)CC3)cc(C(F)(F)F)c2c1N (stereo not drawn) [3-Amino-6-{4-[2-(4-benzylcarbamoyl-phenyl)-2-hydroxy-ethylamino]-piperidin-1-yl}-4-trifluoromethyl-thieno[2,3-b]pyridine-2-carboxylic acid amide] | – | ≤ 10 |
| NC(=O)c1sc2nc(N3CCC(N)CC3)cc(-c3ccc([N+](=O)[O-])cc3)c2c1N [3-Amino-6-(4-amino-piperidin-1-yl)-4-(4-nitro-phenyl)-thieno[2,3-b]pyridine-2-carboxylic acid amide] | – | ≤ 10 |
| CCCc1cc(N2CCN(C)CC2)nc2sc(C(N)=O)c(N)c12 [3-Amino-6-(4-methyl-piperazin-1-yl)-4-propyl-thieno[2,3-b] pyridine-2-carboxylic acid amide] | – | ≤ 10 |
| CCCc1cc(N2CCC(NC)CC2)nc2sc(C(N)=O)c(N)c12 [3-Amino-6-(4-methylamino-piperidin-1-yl)-4-propyl-thieno[2,3-b] pyridine-2-carboxylic acid amide] | – | ≤ 10 |
| CCCc1cc(N2CCC(N)CC2)nc2sc(C(N)=O)c(N)c12 [3-Amino-6-(4-amino-piperidin-1-yl)-4-propyl-thieno[2,3-b] pyridine-2-carboxylic acid amide] | – | ≤ 10 |
| NC(=O)c1sc2nc(N3CCC(N)CC3)cc(/C=C/c3ccccc3)c2c1N [3-Amino-6-(4-amino-piperidin-1-yl)-4-((E)-styryl)-thieno[2,3-b]pyridine-2-carboxylic acid amide] | – | ≤ 10 |
